Measurements from the NIST ThermoML archive (doi:10.1016/j.fluid.2013.01.025).
Numbers after ± are expanded uncertainties.

Tests used:
[1] = xn = mol fraction of the nth substance listed; conditions: 101 kPa, Liquid, Vibrating tube method
[2] = 101 kPa, Liquid, Vibrating tube method

SMILES: O [water] + OCCO
- mass density ([1]; 278.15 K, x2 = 0): 999.96 ± 1 kg/m3
- mass density ([1]; 323.15 K, x2 = 0): 988.03 ± 1 kg/m3

SMILES: OCCO [1,2-ethanediol]
- mass density ([2]; 278.15 K): 1123.8 ± 1 kg/m3
- mass density ([2]; 323.15 K): 1092.14 ± 1 kg/m3

SMILES: OCCO [1,2-ethanediol] + O
- mass density ([1]; 278.15 K, x1 = 0.02277): 1010.24 ± 1 kg/m3
- mass density ([1]; 278.15 K, x1 = 0.05488): 1023.85 ± 1 kg/m3
- mass density ([1]; 278.15 K, x1 = 0.07829): 1032.87 ± 1 kg/m3
- mass density ([1]; 278.15 K, x1 = 0.1012): 1040.89 ± 1 kg/m3
- mass density ([1]; 278.15 K, x1 = 0.158): 1057.7 ± 1 kg/m3
- mass density ([1]; 278.15 K, x1 = 0.2): 1067.88 ± 1 kg/m3
- mass density ([1]; 278.15 K, x1 = 0.299): 1085.43 ± 1 kg/m3
- mass density ([1]; 278.15 K, x1 = 0.3917): 1096.56 ± 1 kg/m3
- mass density ([1]; 278.15 K, x1 = 0.5006): 1105.57 ± 1 kg/m3
- mass density ([1]; 278.15 K, x1 = 0.6041): 1111.55 ± 1 kg/m3
- mass density ([1]; 278.15 K, x1 = 0.7063): 1115.93 ± 1 kg/m3
- mass density ([1]; 278.15 K, x1 = 0.8049): 1119.14 ± 1 kg/m3
- mass density ([1]; 278.15 K, x1 = 0.9034): 1121.73 ± 1 kg/m3
- mass density ([1]; 278.15 K, x1 = 0.9535): 1122.81 ± 1 kg/m3
- mass density ([1]; 278.15 K, x1 = 0.9826): 1123.42 ± 1 kg/m3
- mass density ([1]; 278.15 K, x1 = 1): 1123.8 ± 1 kg/m3
- mass density ([1]; 288.15 K, x1 = 0.02277): 1008.82 ± 1 kg/m3
- mass density ([1]; 288.15 K, x1 = 0.05488): 1021.56 ± 1 kg/m3
- mass density ([1]; 288.15 K, x1 = 0.07829): 1030.01 ± 1 kg/m3
- mass density ([1]; 288.15 K, x1 = 0.1012): 1037.48 ± 1 kg/m3
- mass density ([1]; 288.15 K, x1 = 0.158): 1053.26 ± 1 kg/m3
- mass density ([1]; 288.15 K, x1 = 0.2): 1062.86 ± 1 kg/m3
- mass density ([1]; 288.15 K, x1 = 0.299): 1079.59 ± 1 kg/m3
- mass density ([1]; 288.15 K, x1 = 0.3917): 1090.28 ± 1 kg/m3
- mass density ([1]; 288.15 K, x1 = 0.5006): 1098.99 ± 1 kg/m3
- mass density ([1]; 288.15 K, x1 = 0.6041): 1104.81 ± 1 kg/m3
- mass density ([1]; 288.15 K, x1 = 0.7063): 1109.12 ± 1 kg/m3
- mass density ([1]; 288.15 K, x1 = 0.8049): 1112.26 ± 1 kg/m3
- mass density ([1]; 288.15 K, x1 = 0.9034): 1114.79 ± 1 kg/m3
- mass density ([1]; 288.15 K, x1 = 0.9535): 1115.88 ± 1 kg/m3
- mass density ([1]; 288.15 K, x1 = 0.9826): 1116.49 ± 1 kg/m3
- mass density ([1]; 298.15 K, x1 = 0.02277): 1006.33 ± 1 kg/m3
- mass density ([1]; 298.15 K, x1 = 0.05488): 1018.45 ± 1 kg/m3
- mass density ([1]; 298.15 K, x1 = 0.07829): 1026.44 ± 1 kg/m3
- mass density ([1]; 298.15 K, x1 = 0.1012): 1033.52 ± 1 kg/m3
- mass density ([1]; 298.15 K, x1 = 0.158): 1048.42 ± 1 kg/m3
- mass density ([1]; 298.15 K, x1 = 0.2): 1057.55 ± 1 kg/m3
- mass density ([1]; 298.15 K, x1 = 0.299): 1073.54 ± 1 kg/m3
- mass density ([1]; 298.15 K, x1 = 0.3917): 1083.85 ± 1 kg/m3
- mass density ([1]; 298.15 K, x1 = 0.5006): 1092.32 ± 1 kg/m3
- mass density ([1]; 298.15 K, x1 = 0.6041): 1098 ± 1 kg/m3
- mass density ([1]; 298.15 K, x1 = 0.7063): 1102.24 ± 1 kg/m3
- mass density ([1]; 298.15 K, x1 = 0.8049): 1105.34 ± 1 kg/m3
- mass density ([1]; 298.15 K, x1 = 0.9034): 1107.84 ± 1 kg/m3
- mass density ([1]; 298.15 K, x1 = 0.9535): 1108.92 ± 1 kg/m3
- mass density ([1]; 308.15 K, x1 = 0.02277): 1002.99 ± 1 kg/m3
- mass density ([1]; 308.15 K, x1 = 0.05488): 1014.58 ± 1 kg/m3
- mass density ([1]; 308.15 K, x1 = 0.07829): 1022.21 ± 1 kg/m3
- mass density ([1]; 308.15 K, x1 = 0.1012): 1028.99 ± 1 kg/m3
- mass density ([1]; 308.15 K, x1 = 0.158): 1043.17 ± 1 kg/m3
- mass density ([1]; 308.15 K, x1 = 0.2): 1051.92 ± 1 kg/m3
- mass density ([1]; 308.15 K, x1 = 0.299): 1067.25 ± 1 kg/m3
- mass density ([1]; 308.15 K, x1 = 0.3917): 1077.24 ± 1 kg/m3
- mass density ([1]; 308.15 K, x1 = 0.5006): 1085.51 ± 1 kg/m3
- mass density ([1]; 308.15 K, x1 = 0.6041): 1091.09 ± 1 kg/m3
- mass density ([1]; 308.15 K, x1 = 0.7063): 1095.28 ± 1 kg/m3
- mass density ([1]; 308.15 K, x1 = 0.8049): 1098.34 ± 1 kg/m3
- mass density ([1]; 308.15 K, x1 = 0.9034): 1100.82 ± 1 kg/m3
- mass density ([1]; 308.15 K, x1 = 0.9535): 1101.89 ± 1 kg/m3
- mass density ([1]; 308.15 K, x1 = 0.9826): 1102.48 ± 1 kg/m3
- mass density ([1]; 323.15 K, x1 = 0.02277): 996.6 ± 1 kg/m3
- mass density ([1]; 323.15 K, x1 = 0.05488): 1007.61 ± 1 kg/m3
- mass density ([1]; 323.15 K, x1 = 0.07829): 1014.78 ± 1 kg/m3
- mass density ([1]; 323.15 K, x1 = 0.1012): 1021.16 ± 1 kg/m3
- mass density ([1]; 323.15 K, x1 = 0.158): 1034.52 ± 1 kg/m3
- mass density ([1]; 323.15 K, x1 = 0.2): 1042.75 ± 1 kg/m3
- mass density ([1]; 323.15 K, x1 = 0.299): 1057.39 ± 1 kg/m3
- mass density ([1]; 323.15 K, x1 = 0.3917): 1067.02 ± 1 kg/m3
- mass density ([1]; 323.15 K, x1 = 0.5006): 1075.02 ± 1 kg/m3
- mass density ([1]; 323.15 K, x1 = 0.6041): 1080.49 ± 1 kg/m3
- mass density ([1]; 323.15 K, x1 = 0.7063): 1084.61 ± 1 kg/m3
- mass density ([1]; 323.15 K, x1 = 0.8049): 1087.65 ± 1 kg/m3
- mass density ([1]; 323.15 K, x1 = 0.9034): 1090.14 ± 1 kg/m3
- mass density ([1]; 323.15 K, x1 = 0.9535): 1091.19 ± 1 kg/m3
- mass density ([1]; 323.15 K, x1 = 0.9826): 1091.78 ± 1 kg/m3
- mass density ([1]; 323.15 K, x1 = 1): 1092.14 ± 1 kg/m3
